In ChEMBL document CHEMBL5143638, “Natural aloe emodin-hybridized sulfonamide aminophosphates as novel potential membrane-perturbing and DNA-intercalating agents against Enterococcus faecalis” (Bioorg Med Chem Lett, 2022):
≈ marks a conversion by molar mass, not a printed value.

Experiments:
Format in all cases: functional
[1] = tested on: Klebsiella pneumoniae; assay: Antibacterial activity against Klebsiella pneumoniae assessed as inhibition of bacterial growth measured after 24 hrs by CLSI based broth microdilution method
[2] = tested on: Enterococcus faecalis; assay: Antibacterial activity against Enterococcus faecalis assessed as inhibition of bacterial growth measured after 24 hrs by CLSI based broth microdilution method
[3] = tested on: Staphylococcus aureus; assay: Antibacterial activity against methicillin-resistant Staphylococcus aureus N315 assessed as inhibition of bacterial growth measured after 24 hrs by CLSI based broth microdilution method
[4] = tested on: Staphylococcus aureus; assay: Antibacterial activity against Staphylococcus aureus assessed as inhibition of bacterial growth measured after 24 hrs by CLSI based broth microdilution method
[5] = tested on: Staphylococcus aureus; assay: Antibacterial activity against Staphylococcus aureus ATCC 25923 assessed as inhibition of bacterial growth measured after 24 hrs by CLSI based broth microdilution method
[6] = tested on: Escherichia coli; assay: Antibacterial activity against Escherichia coli assessed as inhibition of bacterial growth measured after 24 hrs by CLSI based broth microdilution method
[7] = tested on: Escherichia coli; assay: Antibacterial activity against Escherichia coli ATCC 25922 assessed as inhibition of bacterial growth measured after 24 hrs by CLSI based broth microdilution method
[8] = tested on: Pseudomonas aeruginosa; assay: Antibacterial activity against Pseudomonas aeruginosa assessed as inhibition of bacterial growth measured after 24 hrs by CLSI based broth microdilution method
[9] = tested on: Pseudomonas aeruginosa; assay: Antibacterial activity against Pseudomonas aeruginosa ATCC 27853 assessed as inhibition of bacterial growth measured after 24 hrs by CLSI based broth microdilution method
[10] = tested on: Acinetobacter baumannii; assay: Antibacterial activity against Acinetobacter baumannii assessed as inhibition of bacterial growth measured after 24 hrs by CLSI based broth microdilution method
[11] = tested on: Staphylococcus aureus; assay: Potency index, ratio of sulfamethoxazole MIC to test compound MIC for antibacterial activity against Staphylococcus aureus assessed as inhibition of bacterial growth measured after 24 hrs by CLSI based broth microdilution method
[12] = tested on: Staphylococcus aureus; assay: Potency index, ratio of sulfamethoxazole MIC to test compound MIC for antibacterial activity against Staphylococcus aureus ATCC 25923 assessed as inhibition of bacterial growth measured after 24 hrs by CLSI based broth microdilution method
[13] = tested on: Klebsiella pneumoniae; assay: Potency index, ratio of sulfamethoxazole MIC to test compound MIC for antibacterial activity against Klebsiella pneumoniae assessed as inhibition of bacterial growth measured after 24 hrs by CLSI based broth microdilution method
[14] = tested on: Klebsiella pneumoniae; assay: Potency index, ratio of norfloxacin MIC to test compound MIC for antibacterial activity against Klebsiella pneumoniae assessed as inhibition of bacterial growth measured after 24 hrs by CLSI based broth microdilution method
[15] = tested on: Klebsiella pneumoniae; assay: Potency index, ratio of aloe emodin MIC to test compound MIC for antibacterial activity against Klebsiella pneumoniae assessed as inhibition of bacterial growth measured after 24 hrs by CLSI based broth microdilution method

Structure (SMILES)	MIC [1] [µg/mL]	MIC [2] [µg/mL]	MIC [3] [µg/mL]	MIC [4] [µg/mL]	MIC [5] [µg/mL]	MIC [6] [µg/mL]	MIC [7] [µg/mL]	MIC [8] [µg/mL]	MIC [9] [µg/mL]	MIC [10] [µg/mL]	Ratio [11]	Ratio [12]	Ratio [13]	Ratio [14]	Ratio [15]
Nc1ccc(S(=O)(=O)Nc2ncccn2)cc1 [SULFADIAZINE]	256 (≈ 1020 µM)	16 (≈ 63.9 µM)	64 (≈ 256 µM)	64 (≈ 256 µM)	16 (≈ 63.9 µM)	64 (≈ 256 µM)	32 (≈ 128 µM)	8 (≈ 32 µM)	64 (≈ 256 µM)	32 (≈ 128 µM)					
Cc1cc(NS(=O)(=O)c2ccc(N)cc2)no1 [SULFAMETHOXAZOLE]	8 (≈ 31.6 µM)	16 (≈ 63.2 µM)	4 (≈ 15.8 µM)	8 (≈ 31.6 µM)	32 (≈ 126 µM)	64 (≈ 253 µM)	4 (≈ 15.8 µM)	4 (≈ 15.8 µM)	2 (≈ 7.9 µM)	4 (≈ 15.8 µM)					
O=C1c2cccc(O)c2C(=O)c2c(O)cc(CO)cc21 [ALOE-EMODIN]	64 (≈ 237 µM)	32 (≈ 118 µM)	16 (≈ 59.2 µM)	64 (≈ 237 µM)	8 (≈ 29.6 µM)	8 (≈ 29.6 µM)	4 (≈ 14.8 µM)	16 (≈ 59.2 µM)	4 (≈ 14.8 µM)	8 (≈ 29.6 µM)					
COP(=O)(OC)C(Nc1ccc(S(=O)(=O)Nc2onc(C)c2C)cc1)c1cc(O)c2c(c1)C(=O)c1cccc(O)c1C2=O (stereo not given)	32 (≈ 51 µM)	64 (≈ 102 µM)	2 (≈ 3.19 µM)	2 (≈ 3.19 µM)	8 (≈ 12.7 µM)	128 (≈ 204 µM)	0.5 (≈ 0.797 µM)	8 (≈ 12.7 µM)	256 (≈ 408 µM)	4 (≈ 6.37 µM)					
CCCCOP(=O)(OCCCC)C(Nc1ccc(S(=O)(=O)Nc2nccs2)cc1)c1cc(O)c2c(c1)C(=O)c1cccc(O)c1C2=O (stereo not given)	256 (≈ 366 µM)	256 (≈ 366 µM)	256 (≈ 366 µM)	256 (≈ 366 µM)	256 (≈ 366 µM)	256 (≈ 366 µM)	256 (≈ 366 µM)	256 (≈ 366 µM)	256 (≈ 366 µM)	256 (≈ 366 µM)					
Cc1cc(NS(=O)(=O)c2ccc(NC(c3cc(O)c4c(c3)C(=O)c3cccc(O)c3C4=O)P(=O)(OC(C)C)OC(C)C)cc2)no1 (stereo not given)	256 (≈ 382 µM)	32 (≈ 47.8 µM)	128 (≈ 191 µM)	128 (≈ 191 µM)	256 (≈ 382 µM)	64 (≈ 95.6 µM)	64 (≈ 95.6 µM)	32 (≈ 47.8 µM)	8 (≈ 11.9 µM)	0.5 (≈ 0.747 µM)					
CCOP(=O)(OCC)C(Nc1ccc(S(=O)(=O)Nc2cc(C)on2)cc1)c1cc(O)c2c(c1)C(=O)c1cccc(O)c1C2=O (stereo not given)	2 (≈ 3.12 µM)	256 (≈ 399 µM)	64 (≈ 99.8 µM)	0.5 (≈ 0.779 µM)	0.5 (≈ 0.779 µM)	64 (≈ 99.8 µM)	32 (≈ 49.9 µM)	32 (≈ 49.9 µM)	32 (≈ 49.9 µM)	64 (≈ 99.8 µM)	16	64	4	2	32
COP(=O)(OC)C(Nc1ccc(S(=O)(=O)Nc2nccs2)cc1)c1cc(O)c2c(c1)C(=O)c1cccc(O)c1C2=O (stereo not given)	2 (≈ 3.25 µM)	32 (≈ 52 µM)	64 (≈ 104 µM)	8 (≈ 13 µM)	32 (≈ 52 µM)	1 (≈ 1.62 µM)	64 (≈ 104 µM)	16 (≈ 26 µM)	64 (≈ 104 µM)	8 (≈ 13 µM)					
CCOP(=O)(OCC)C(Nc1ccc(S(=O)(=O)Nc2nccs2)cc1)c1cc(O)c2c(c1)C(=O)c1cccc(O)c1C2=O (stereo not given)	256 (≈ 398 µM)	0.5 (≈ 0.777 µM)	256 (≈ 398 µM)	16 (≈ 24.9 µM)	256 (≈ 398 µM)	256 (≈ 398 µM)	256 (≈ 398 µM)	256 (≈ 398 µM)	128 (≈ 199 µM)	64 (≈ 99.4 µM)					
Cc1noc(NS(=O)(=O)c2ccc(NC(c3cc(O)c4c(c3)C(=O)c3cccc(O)c3C4=O)P(=O)(OC(C)C)OC(C)C)cc2)c1C (stereo not given)	2 (≈ 2.93 µM)	64 (≈ 93.6 µM)	0.25 (≈ 0.366 µM)	2 (≈ 2.93 µM)	2 (≈ 2.93 µM)	64 (≈ 93.6 µM)	0.5 (≈ 0.731 µM)	2 (≈ 2.93 µM)	256 (≈ 374 µM)	2 (≈ 2.93 µM)					
COP(=O)(OC)C(Nc1ccc(S(N)(=O)=O)cc1)c1cc(O)c2c(c1)C(=O)c1cccc(O)c1C2=O (stereo not given)	128 (≈ 240 µM)	0.25 (≈ 0.47 µM)	16 (≈ 30 µM)	32 (≈ 60.1 µM)	128 (≈ 240 µM)	2 (≈ 3.76 µM)	8 (≈ 15 µM)	64 (≈ 120 µM)	32 (≈ 60.1 µM)	0.5 (≈ 0.939 µM)					
Nc1ccc(S(N)(=O)=O)cc1 [SULFANILAMIDE]	8 (≈ 46.5 µM)	128 (≈ 743 µM)	256 (≈ 1490 µM)	128 (≈ 743 µM)	256 (≈ 1490 µM)	64 (≈ 372 µM)	4 (≈ 23.2 µM)	4 (≈ 23.2 µM)	2 (≈ 11.6 µM)	4 (≈ 23.2 µM)					
Cc1cc(NS(=O)(=O)c2ccc(NC(c3cc(O)c4c(c3)C(=O)c3cccc(O)c3C4=O)P(=O)(Oc3ccccc3)Oc3ccccc3)cc2)no1 (stereo not given)	128 (≈ 174 µM)	64 (≈ 86.8 µM)	64 (≈ 86.8 µM)	64 (≈ 86.8 µM)	256 (≈ 347 µM)	64 (≈ 86.8 µM)	32 (≈ 43.4 µM)	64 (≈ 86.8 µM)	256 (≈ 347 µM)	64 (≈ 86.8 µM)					
CCn1cc(C(=O)O)c(=O)c2cc(F)c(N3CCNCC3)cc21 [NORFLOXACIN]	4 (≈ 12.5 µM)	4 (≈ 12.5 µM)	8 (≈ 25.1 µM)	8 (≈ 25.1 µM)	4 (≈ 12.5 µM)	8 (≈ 25.1 µM)	4 (≈ 12.5 µM)	2 (≈ 6.26 µM)	2 (≈ 6.26 µM)	8 (≈ 25.1 µM)					
CCCCOP(=O)(OCCCC)C(Nc1ccc(S(=O)(=O)Nc2cc(C)on2)cc1)c1cc(O)c2c(c1)C(=O)c1cccc(O)c1C2=O (stereo not given)	256 (≈ 367 µM)	256 (≈ 367 µM)	16 (≈ 22.9 µM)	128 (≈ 183 µM)	128 (≈ 183 µM)	128 (≈ 183 µM)	64 (≈ 91.7 µM)	64 (≈ 91.7 µM)	64 (≈ 91.7 µM)	64 (≈ 91.7 µM)					
NS(=O)(=O)c1ccc(NC(c2cc(O)c3c(c2)C(=O)c2cccc(O)c2C3=O)P(=O)(Oc2ccccc2)Oc2ccccc2)cc1 (stereo not given)	128 (≈ 195 µM)	32 (≈ 48.7 µM)	16 (≈ 24.4 µM)	64 (≈ 97.5 µM)	256 (≈ 390 µM)	64 (≈ 97.5 µM)	32 (≈ 48.7 µM)	128 (≈ 195 µM)	32 (≈ 48.7 µM)	16 (≈ 24.4 µM)					
CCOP(=O)(OCC)C(Nc1ccc(S(=O)(=O)Nc2onc(C)c2C)cc1)c1cc(O)c2c(c1)C(=O)c1cccc(O)c1C2=O (stereo not given)	256 (≈ 390 µM)	256 (≈ 390 µM)	16 (≈ 24.4 µM)	256 (≈ 390 µM)	256 (≈ 390 µM)	256 (≈ 390 µM)	256 (≈ 390 µM)	256 (≈ 390 µM)	256 (≈ 390 µM)	256 (≈ 390 µM)					
Nc1ccc(S(=O)(=O)Nc2nccs2)cc1 [SULFATHIAZOLE]	256 (≈ 1000 µM)	64 (≈ 251 µM)	128 (≈ 501 µM)	128 (≈ 501 µM)	64 (≈ 251 µM)	64 (≈ 251 µM)	64 (≈ 251 µM)	64 (≈ 251 µM)	64 (≈ 251 µM)	32 (≈ 125 µM)					
CC(C)OP(=O)(OC(C)C)C(Nc1ccc(S(=O)(=O)Nc2nccs2)cc1)c1cc(O)c2c(c1)C(=O)c1cccc(O)c1C2=O (stereo not given)	256 (≈ 381 µM)	256 (≈ 381 µM)	256 (≈ 381 µM)	256 (≈ 381 µM)	32 (≈ 47.6 µM)	256 (≈ 381 µM)	128 (≈ 191 µM)	256 (≈ 381 µM)	128 (≈ 191 µM)	256 (≈ 381 µM)					
COP(=O)(OC)C(Nc1ccc(S(=O)(=O)Nc2cc(C)on2)cc1)c1cc(O)c2c(c1)C(=O)c1cccc(O)c1C2=O (stereo not given)	32 (≈ 52.2 µM)	64 (≈ 104 µM)	128 (≈ 209 µM)	8 (≈ 13 µM)	0.5 (≈ 0.815 µM)	16 (≈ 26.1 µM)	64 (≈ 104 µM)	16 (≈ 26.1 µM)	64 (≈ 104 µM)	128 (≈ 209 µM)					
CCCCOP(=O)(OCCCC)C(Nc1ccc(S(N)(=O)=O)cc1)c1cc(O)c2c(c1)C(=O)c1cccc(O)c1C2=O (stereo not given)	256 (≈ 415 µM)	128 (≈ 208 µM)	64 (≈ 104 µM)	256 (≈ 415 µM)	256 (≈ 415 µM)	256 (≈ 415 µM)	256 (≈ 415 µM)	256 (≈ 415 µM)	256 (≈ 415 µM)	256 (≈ 415 µM)					
O=C1c2cccc(O)c2C(=O)c2c(O)cc(C(Nc3ccc(S(=O)(=O)Nc4ncccn4)cc3)P(=O)(Oc3ccccc3)Oc3ccccc3)cc21 (stereo not given)	128 (≈ 174 µM)	64 (≈ 87.1 µM)	64 (≈ 87.1 µM)	32 (≈ 43.6 µM)	256 (≈ 348 µM)	64 (≈ 87.1 µM)	32 (≈ 43.6 µM)	128 (≈ 174 µM)	64 (≈ 87.1 µM)	64 (≈ 87.1 µM)					
Cc1noc(NS(=O)(=O)c2ccc(NC(c3cc(O)c4c(c3)C(=O)c3cccc(O)c3C4=O)P(=O)(Oc3ccccc3)Oc3ccccc3)cc2)c1C (stereo not given)	128 (≈ 170 µM)	64 (≈ 85.1 µM)	32 (≈ 42.6 µM)	16 (≈ 21.3 µM)	16 (≈ 21.3 µM)	64 (≈ 85.1 µM)	64 (≈ 85.1 µM)	32 (≈ 42.6 µM)	64 (≈ 85.1 µM)	128 (≈ 170 µM)					
O=C1c2cccc(O)c2C(=O)c2c(O)cc(C(Nc3ccc(S(=O)(=O)Nc4nccs4)cc3)P(=O)(Oc3ccccc3)Oc3ccccc3)cc21 (stereo not given)	128 (≈ 173 µM)	64 (≈ 86.5 µM)	64 (≈ 86.5 µM)	64 (≈ 86.5 µM)	256 (≈ 346 µM)	128 (≈ 173 µM)	64 (≈ 86.5 µM)	32 (≈ 43.3 µM)	128 (≈ 173 µM)	64 (≈ 86.5 µM)					
